The target in one series is T1, Acetylcholinesterase (Mus musculus, UniProt P21836).
T1 sequence (P21836 whole entry): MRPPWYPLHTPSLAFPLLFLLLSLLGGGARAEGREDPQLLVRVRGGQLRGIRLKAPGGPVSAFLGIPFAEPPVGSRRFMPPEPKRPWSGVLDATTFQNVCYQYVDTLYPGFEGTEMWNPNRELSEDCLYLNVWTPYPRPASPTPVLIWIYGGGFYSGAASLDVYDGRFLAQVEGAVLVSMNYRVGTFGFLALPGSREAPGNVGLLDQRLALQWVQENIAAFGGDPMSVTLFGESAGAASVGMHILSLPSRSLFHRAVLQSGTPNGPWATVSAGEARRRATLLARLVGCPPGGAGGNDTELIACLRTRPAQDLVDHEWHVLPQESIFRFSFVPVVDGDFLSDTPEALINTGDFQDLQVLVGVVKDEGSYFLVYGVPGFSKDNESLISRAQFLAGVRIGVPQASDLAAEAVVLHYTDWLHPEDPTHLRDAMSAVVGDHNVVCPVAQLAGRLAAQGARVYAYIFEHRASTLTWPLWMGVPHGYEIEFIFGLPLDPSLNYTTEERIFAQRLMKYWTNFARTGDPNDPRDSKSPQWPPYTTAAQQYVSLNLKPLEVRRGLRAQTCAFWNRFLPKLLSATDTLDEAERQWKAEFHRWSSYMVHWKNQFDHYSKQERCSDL
As to the kind of experiment: Inhibition of recombinant mouse AChE by Ellman method. Background: Ellman's reagent forms a yellow product with free thiols.

Series [1] has as its target T2, Cholinesterase (Homo sapiens, UniProt P06276). As to the kind of experiment: Inhibition of recombinant human BChE at 50 nM by stopped flow apparatus method.
The target of series [2] is T2, Cholinesterase.
Description: Inhibition of recombinant human BChE by Ellman method
Series [3] addresses T2, Cholinesterase. Nature of the series: Inhibition of recombinant human BChE at 10 uM by Ellman method.
In series [4] the target is Cholinesterase (Mus musculus) (UniProt Q03311). Nature of the series: Inhibition of recombinant mouse BChE at 10 uM by Ellman method.
Sequence of Cholinesterase (Mus musculus) (Q03311 whole entry): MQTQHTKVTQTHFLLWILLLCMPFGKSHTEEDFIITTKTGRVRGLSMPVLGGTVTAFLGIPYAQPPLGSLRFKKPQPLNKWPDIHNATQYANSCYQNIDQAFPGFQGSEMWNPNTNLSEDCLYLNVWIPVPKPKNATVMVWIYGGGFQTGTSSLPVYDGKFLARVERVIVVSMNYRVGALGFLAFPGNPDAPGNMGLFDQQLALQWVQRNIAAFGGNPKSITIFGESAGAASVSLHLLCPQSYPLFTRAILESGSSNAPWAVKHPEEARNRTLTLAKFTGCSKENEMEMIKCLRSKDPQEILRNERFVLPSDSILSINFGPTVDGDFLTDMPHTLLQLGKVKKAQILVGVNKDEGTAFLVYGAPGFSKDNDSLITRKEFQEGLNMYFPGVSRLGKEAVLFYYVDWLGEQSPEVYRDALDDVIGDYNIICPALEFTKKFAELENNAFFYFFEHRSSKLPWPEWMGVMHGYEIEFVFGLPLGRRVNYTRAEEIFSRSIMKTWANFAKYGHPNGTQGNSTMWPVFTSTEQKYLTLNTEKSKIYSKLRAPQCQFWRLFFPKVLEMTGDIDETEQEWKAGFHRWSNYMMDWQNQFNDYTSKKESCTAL
Series [5] has as its target T3, Acetylcholinesterase (Mus musculus) (UniProt P21836).
T3 sequence (whole entry): T1 sequence (P21836 whole entry)
Nature of the series: Inhibition of recombinant mouse AChE assessed as residual activity at 10 uM by Ellman method.

In series [6] the test system is SH-SY5Y. Nature of the series: Neuroprotective activity in human SH-SY5Y cells assessed as inhibition of amyloid beta(1-42)-induced neurotoxicity at 0.1 to 10 uM incubated for 48 hrs by MTS assay. The class given is functional, cell-based.
Series [7] concerns SH-SY5Y. As to the kind of experiment: Neuroprotective activity in human SH-SY5Y cells assessed as inhibition of amyloid beta(1-42)-induced neurotoxicity at 0.1 to 10 uM incubated for 48 hrs by LDH release assay. The class given is functional, cell-based. For orientation: Release of lactate dehydrogenase indicates damage to the cell membrane.
The nature of series [8]: Cytotoxicity against human SH-SY5Y cells assessed as reduction in cell viability at 10 uM after 48 hrs by MTS assay. Format: cell-based.

T2 sequence (P06276 whole entry): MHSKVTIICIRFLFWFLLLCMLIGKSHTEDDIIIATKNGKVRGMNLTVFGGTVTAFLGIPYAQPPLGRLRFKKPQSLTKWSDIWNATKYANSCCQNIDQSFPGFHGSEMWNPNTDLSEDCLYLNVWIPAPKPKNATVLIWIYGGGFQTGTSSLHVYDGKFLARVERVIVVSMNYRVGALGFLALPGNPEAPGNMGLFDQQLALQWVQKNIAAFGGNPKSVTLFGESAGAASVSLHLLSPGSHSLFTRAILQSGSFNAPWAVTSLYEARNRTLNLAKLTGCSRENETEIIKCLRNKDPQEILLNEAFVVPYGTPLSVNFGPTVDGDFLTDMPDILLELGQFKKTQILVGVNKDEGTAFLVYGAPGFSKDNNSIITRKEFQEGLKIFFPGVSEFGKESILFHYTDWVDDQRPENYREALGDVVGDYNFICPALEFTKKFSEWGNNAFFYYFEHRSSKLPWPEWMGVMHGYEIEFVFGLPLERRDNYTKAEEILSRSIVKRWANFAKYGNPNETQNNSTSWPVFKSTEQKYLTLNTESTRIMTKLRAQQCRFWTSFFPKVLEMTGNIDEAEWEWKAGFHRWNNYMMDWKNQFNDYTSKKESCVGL

Usually IC50 stands for the concentration that inhibits the measured activity by half. By Ki is commonly meant a dissociation constant, usually derived from enzyme kinetics or from competition with a known ligand. For the molecule `COCCN(C[C@H]1CCCN(C2Cc3ccccc3C2)C1)C(=O)c1ccc2ccccc2c1`, the values for the IC50 on Acetylcholinesterase (read-out: IC50) and on Cholinesterase [2] were 110000 nM and 166 nM, respectively. Moreover, the Ki at Cholinesterase [1] came to 27 nM.

One may read the inhibition as how much of the control response was suppressed. As for `CC(c1nc2ccccc2s1)N(C)C(=O)CN1CCCC1c1ccc2c(c1)OCCCO2` (centres undefined), the inhibition (on Cholinesterase [3]; in [4]) was over 50% throughout. Besides, the Activity in series [5] stood at 94%. At Cholinesterase [2], this molecule returned an IC50 of 1360 nM.

Regarding `CCn1nc(C(=O)N2CCCC2)c2c1CCC(NCCc1nc(-c3ccccc3)cs1)C2` (centres undefined), the inhibition (at Cholinesterase [3]; in series [4]) was over 50% in each case. The IC50 entry is “Not Active” on Acetylcholinesterase and 2150 nM against Cholinesterase [2].

As to `COCCN(C[C@@H]1CCCN(C2Cc3ccccc3C2)C1)C(=O)c1ccc2ccccc2c1`, the IC50 was 101000 nM on Acetylcholinesterase (read-out: IC50) and 13 nM on Cholinesterase [2]. Besides, the Ki on Cholinesterase [1] was found to be 2.71 nM.

For the molecule `COCCN(CC1CCCN(C2Cc3ccccc3C2)C1)C(=O)c1ccc2ccccc2c1` (racemic), the inhibition (at Cholinesterase [3]; in [4]) was over 50% in each case. Also, the Activity entry is “Dose-dependent effect” with SH-SY5Y [6], “Dose-dependent effect” in the series on SH-SY5Y [7] and “Non-toxic” in series [8].

The record behind these values is ChEMBL document CHEMBL3352549, “Discovery, biological evaluation, and crystal structure of a novel nanomolar selective butyrylcholinesterase inhibitor” (J Med Chem, 2014).
